Source: ChEMBL document CHEMBL2163283, “Design and synthesis of novel stiripentol analogues as potential anticonvulsants” (Eur J Med Chem, 2012)
Calls of active or inactive are those of the source. The rule behind the calls is not given here.

What was measured:
Mus musculus [1] = assay: Anticonvulsant activity in Swiss albino mouse assessed as protection against subcutaneous pentylenetetrazol-induced seizures at 370 umol/kg, ip administered 30 mins before pentylenetetrazole challenge measured after 30 mins; type: functional
Mus musculus [2] = assay: Anticonvulsant activity in Swiss albino mouse assessed as protection against subcutaneous pentylenetetrazol-induced seizures at 370 umol/kg, ip administered 30 mins before pentylenetetrazole challenge measured after 30 mins relative to stiripentol; type: functional
Mus musculus [3] = assay: Anticonvulsant activity in Swiss albino mouse assessed as maximal electroshock-induced seizures at 370 umol/kg, ip administered 30 mins before electroshock challenge; type: functional, organism-based
Mus musculus [4] = assay: Anticonvulsant activity in Swiss albino mouse assessed as protection against subcutaneous pentylenetetrazol-induced seizures at 390 umol/kg, ip administered 30 mins before pentylenetetrazole challenge measured after 30 mins; type: functional
Mus musculus [5] = assay: Anticonvulsant activity in Swiss albino mouse assessed as protection against subcutaneous pentylenetetrazol-induced seizures at 390 umol/kg, ip administered 30 mins before pentylenetetrazole challenge measured after 30 mins relative to stiripentol; type: functional
Mus musculus [6] = assay: Anticonvulsant activity in Swiss albino mouse assessed as maximal electroshock-induced seizures at 390 umol/kg, ip administered 30 mins before electroshock challenge; type: functional, organism-based
Mus musculus [7] = assay: Anticonvulsant activity in Swiss albino mouse assessed as protection against subcutaneous pentylenetetrazol-induced seizures at 340 umol/kg, ip administered 30 mins before pentylenetetrazole challenge measured after 30 mins; type: functional
Mus musculus [8] = assay: Anticonvulsant activity in Swiss albino mouse assessed as protection against subcutaneous pentylenetetrazol-induced seizures at 340 umol/kg, ip administered 30 mins before pentylenetetrazole challenge measured after 30 mins relative to stiripentol; type: functional
Mus musculus [9] = assay: Anticonvulsant activity in Swiss albino mouse assessed as maximal electroshock-induced seizures at 340 umol/kg, ip administered 30 mins before electroshock challenge; type: functional
Mus musculus [10] = assay: Anticonvulsant activity in Swiss albino mouse assessed as protection against subcutaneous pentylenetetrazol-induced seizures at 346 umol/kg, ip administered 30 mins before pentylenetetrazole challenge measured after 30 mins; type: functional
Mus musculus [11] = assay: Anticonvulsant activity in Swiss albino mouse assessed as protection against subcutaneous pentylenetetrazol-induced seizures at 346 umol/kg, ip administered 30 mins before pentylenetetrazole challenge measured after 30 mins relative to stiripentol; type: functional
Mus musculus [12] = assay: Anticonvulsant activity in Swiss albino mouse assessed as maximal electroshock-induced seizures at 346 umol/kg, ip administered 30 mins before electroshock challenge; type: functional
Mus musculus [13] = assay: Anticonvulsant activity in Swiss albino mouse assessed as protection against subcutaneous pentylenetetrazol-induced seizures at 420 umol/kg, ip administered 30 mins before pentylenetetrazole challenge measured after 30 mins; type: functional
Mus musculus [14] = assay: Anticonvulsant activity in Swiss albino mouse assessed as protection against subcutaneous pentylenetetrazol-induced seizures at 420 umol/kg, ip administered 30 mins before pentylenetetrazole challenge measured after 30 mins relative to stiripentol; type: functional
Mus musculus [15] = assay: Anticonvulsant activity in Swiss albino mouse assessed as maximal electroshock-induced seizures at 420 umol/kg, ip administered 30 mins before electroshock challenge; type: functional, organism-based
Mus musculus [16] = assay: Anticonvulsant activity in Swiss albino mouse assessed as protection against subcutaneous pentylenetetrazol-induced seizures at 350 umol/kg, ip administered 30 mins before pentylenetetrazole challenge measured after 30 mins; type: functional
Mus musculus [17] = assay: Anticonvulsant activity in Swiss albino mouse assessed as protection against subcutaneous pentylenetetrazol-induced seizures at 350 umol/kg, ip administered 30 mins before pentylenetetrazole challenge measured after 30 mins relative to stiripentol; type: functional
Mus musculus [18] = assay: Anticonvulsant activity in Swiss albino mouse assessed as maximal electroshock-induced seizures at 350 umol/kg, ip administered 30 mins before electroshock challenge; type: functional
Mus musculus [19] = assay: Anticonvulsant activity in ip dosed Swiss albino mouse assessed as protection against subcutaneous pentylenetetrazol-induced seizures administered 30 mins before pentylenetetrazole challenge measured after 30 mins; type: functional
Mus musculus [20] = assay: Neurotoxicity in Swiss albino mouse assessed as effect on hindlimb grip strength at 350 umol/kg, sc administered measured every 15 mins for 2 hrs; type: toxicity, organism-based; settings: in vivo
Mus musculus [21] = assay: Neurotoxicity in Swiss albino mouse assessed as climbing response to inverted mesh at 350 umol/kg, sc administered measured every 15 mins for 2 hrs by wire mesh grasping test; type: toxicity, organism-based; settings: in vivo
Mus musculus [22] = assay: Anticonvulsant activity in Swiss albino mouse assessed as protection against subcutaneous pentylenetetrazol-induced seizures at 410 umol/kg, ip administered 30 mins before pentylenetetrazole challenge measured after 30 mins relative to stiripentol; type: functional
Mus musculus [23] = assay: Anticonvulsant activity in Swiss albino mouse assessed as protection against subcutaneous pentylenetetrazol-induced seizures at 410 umol/kg, ip administered 30 mins before pentylenetetrazole challenge measured after 30 mins; type: functional
Mus musculus [24] = assay: Anticonvulsant activity in Swiss albino mouse assessed as maximal electroshock-induced seizures at 410 umol/kg, ip administered 30 mins before electroshock challenge; type: functional
Mus musculus [25] = assay: Anticonvulsant activity in Swiss albino mouse assessed as protection against subcutaneous pentylenetetrazol-induced seizures at 108 umol/kg, ip administered 30 mins before pentylenetetrazole challenge measured after 30 mins; type: functional
Mus musculus [26] = assay: Anticonvulsant activity in Swiss albino mouse assessed as protection against subcutaneous pentylenetetrazol-induced seizures at 159 umol/kg, ip administered 30 mins before pentylenetetrazole challenge measured after 30 mins; type: functional, organism-based
Mus musculus [27] = assay: Anticonvulsant activity in Swiss albino mouse assessed as maximal electroshock-induced seizures at 159 umol/kg, ip administered 30 mins before electroshock challenge; type: functional
Mus musculus [28] = assay: Anticonvulsant activity in Swiss albino mouse assessed as protection against subcutaneous pentylenetetrazol-induced seizures at 384 umol/kg, ip administered 30 mins before pentylenetetrazole challenge measured after 30 mins; type: functional
Mus musculus [29] = assay: Anticonvulsant activity in Swiss albino mouse assessed as protection against subcutaneous pentylenetetrazol-induced seizures at 427 umol/kg, ip administered 30 mins before pentylenetetrazole challenge measured after 30 mins; type: functional
Mus musculus [30] = assay: Anticonvulsant activity in Swiss albino mouse assessed as protection against subcutaneous pentylenetetrazol-induced seizures at 491 umol/kg, ip administered 30 mins before pentylenetetrazole challenge measured after 30 mins; type: functional
Mus musculus [31] = assay: Anticonvulsant activity in Swiss albino mouse assessed as protection against subcutaneous pentylenetetrazol-induced seizures at 534 umol/kg, ip administered 30 mins before pentylenetetrazole challenge measured after 30 mins; type: functional
Mus musculus [32] = assay: Anticonvulsant activity in Swiss albino mouse assessed as protection against subcutaneous pentylenetetrazol-induced seizures at 576 umol/kg, ip administered 30 mins before pentylenetetrazole challenge measured after 30 mins; type: functional
Mus musculus [33] = assay: Anticonvulsant activity in Swiss albino mouse assessed as protection against subcutaneous pentylenetetrazol-induced seizures at 640 umol/kg, ip administered 30 mins before pentylenetetrazole challenge measured after 30 mins; type: functional
Mus musculus [34] = assay: Anticonvulsant activity in Swiss albino mouse assessed as maximal electroshock-induced seizures at 640 umol/kg, ip administered 30 mins before electroshock challenge; type: functional
Mus musculus [35] = assay: Anticonvulsant activity in Swiss albino mouse assessed as protection against subcutaneous pentylenetetrazol-induced seizures at 747 umol/kg, ip administered 30 mins before pentylenetetrazole challenge measured after 30 mins; type: functional
Mus musculus [36] = assay: Anticonvulsant activity in ip dosed Swiss albino mouse assessed as maximal electroshock-induced seizures administered 30 mins before electroshock challenge; type: functional
Mus musculus [37] = assay: Neurotoxicity in Swiss albino mouse assessed as effect on hindlimb grip strength at 747 umol/kg, sc administered measured every 15 mins for 2 hrs; type: toxicity, organism-based; settings: in vivo
Mus musculus [38] = assay: Neurotoxicity in Swiss albino mouse assessed as climbing response to inverted mesh at 747 umol/kg, sc administered measured every 15 mins for 2 hrs by wire mesh grasping test; type: toxicity, organism-based; settings: in vivo

CC(C)(C)C1=NN(C(=O)Nc2ccc(Cl)cc2)C(c2ccc3c(c2)OCO3)C1 (racemic)
Activity (Mus musculus [1]): 33% | Activity (Mus musculus [2]): 1.15% | Activity (Mus musculus [3]): inactive

Cc1ccc(NC(=O)N2N=C(C(C)(C)C)CC2c2ccc3c(c2)OCO3)cc1 (racemic)
Activity (Mus musculus [4]): 83% | Activity (Mus musculus [5]): 1.48 ratio to stiripentol | Activity (Mus musculus [6]): inactive

Cc1ccccc1NC(=O)N1N=C(C(C)(C)C)CC1c1ccc2c(c1)OCO2 (racemic)
Activity (Mus musculus [4]): 16% | Activity (Mus musculus [5]): 0.95 ratio to stiripentol | Activity (Mus musculus [6]): inactive

CC(C)(C)C1=NN(C(=O)Nc2ccc(Cl)cc2Cl)C(c2ccc3c(c2)OCO3)C1 (racemic)
Activity (Mus musculus [7]): 33% | Activity (Mus musculus [8]): 1.26% | Activity (Mus musculus [9]): inactive

CC(C)(C)C1=NN(C(=O)Nc2ccc(F)cc2)C(c2ccc3c(c2)OCO3)C1 (racemic)
Activity (Mus musculus [4]): 33% | Activity (Mus musculus [5]): 1.09 ratio to stiripentol | Activity (Mus musculus [6]): inactive

CC(C)(C)C1=NN(C(N)=O)C(c2ccc3c(c2)OCO3)C1 (racemic)
Activity (Mus musculus [10]): 16% | Activity (Mus musculus [11]): 1.11% | Activity (Mus musculus [12]): 66%

CC(C)(C)C1=NN(C(=O)c2ccccc2)C(c2ccc3c(c2)OCO3)C1 (racemic)
Activity (Mus musculus [13]): 66% | Activity (Mus musculus [14]): 1.27% | Activity (Mus musculus [15]): inactive

CC(C)(C)C1=NN(C(=O)c2ccc(Br)cc2)C(c2ccc3c(c2)OCO3)C1 (racemic)
Activity (Mus musculus [16]): 100% | Activity (Mus musculus [17]): 2.13% | Activity (Mus musculus [18]): 16% | ED50 (Mus musculus [19]): 110 mg/kg | Activity (Mus musculus [20]): Non-toxic | Activity (Mus musculus [21]): Non-toxic

CC(C)(C)C1=NN(C(=O)c2ccc(Cl)cc2)C(c2ccc3c(c2)OCO3)C1 (racemic)
Activity (Mus musculus [4]): 50% | Activity (Mus musculus [5]): 1.26 ratio to stiripentol | Activity (Mus musculus [6]): inactive

Cc1ccc(C(=O)N2N=C(C(C)(C)C)CC2c2ccc3c(c2)OCO3)cc1 (racemic)
Activity (Mus musculus [22]): 1.04% | Activity (Mus musculus [23]): 33% | Activity (Mus musculus [24]): 33%

CCC1(c2ccccc2)C(=O)NC(=O)NC1=O [PHENOBARBITAL]
Activity (Mus musculus [25]): 100%

O=C1NC(=O)C(c2ccccc2)(c2ccccc2)N1 [PHENYTOIN]
Activity (Mus musculus [26]): inactive | Activity (Mus musculus [27]): 100%

CC(C)(C)C(O)/C=C/c1ccc2c(c1)OCO2 (stereo not drawn) [STIRIPENTOL]
Activity (Mus musculus [28]): 16% | Activity (Mus musculus [29]): 33% | Activity (Mus musculus [30]): 50% | Activity (Mus musculus [31]): 66% | Activity (Mus musculus [32]): 83% | Activity (Mus musculus [33]): 83% | Activity (Mus musculus [34]): 66% | Activity (Mus musculus [35]): 100% | ED50 (Mus musculus [19]): 115 mg/kg | ED50 (Mus musculus [36]): 277 mg/kg | Activity (Mus musculus [37]): Non-toxic | Activity (Mus musculus [38]): Non-toxic
